Test in all cases: ≥ marks a high value that may be exact or a test limit, other limits are often not marked, values filed in µg/mL are converted to µM
In test [1] the test system is Pseudomonas aeruginosa PAO1.
The test system of test [2] is Streptococcus pyogenes M1T1 5448.
A further test relates to Escherichia coli BL21.
Test [3] has as its system Batrachochytrium dendrobatidis JEL-197.
In test [4] the test system is Staphylococcus aureus ATCC 25923.
In test [5] the test system is Escherichia coli ATCC 25726.
Test [6] deals with Candida albicans ATCC 90028.
The test system of another test is Escherichia coli MG1655.

Each structure is given as a SMILES string. ≈ marks a conversion by molar mass, not a printed value.

The values below come from DBAASP.

For `CC[C@H](C)[C@H](NC(=O)[C@H](CCCCN)NC(=O)CNC(=O)[C@H](Cc1ccccc1)NC(=O)[C@H](CCCCN)NC(=O)[C@H](CCCN=C(N)N)NC(=O)[C@H](CC(C)C)NC(=O)[C@H](Cc1ccc(O)cc1)NC(=O)[C@H](CCC(=O)O)NC(=O)[C@H](CC(C)C)NC(=O)[C@H](CC(C)C)NC(=O)[C@H](CCC(=O)O)NC(=O)[C@H](CCCCN)NC(=O)[C@@H](NC(=O)[C@H](CC(C)C)NC(=O)[C@H](CCCN=C(N)N)NC(=O)[C@H](CCC(N)=O)NC(=O)[C@H](C)NC(=O)CNC(=O)[C@H](C)N)[C@@H](C)O)C(=O)N[C@@H](C)C(=O)N[C@@H](CCCN=C(N)N)C(=O)N[C@@H](CCCCN)C(=O)N[C@@H](C)C(=O)N[C@@H](Cc1c[nH]c2ccccc12)C(=O)O` [AGAQRLTKELLEYLRKFGKIARKAW], the MIC – broadly, the smallest concentration in the dilution series that meets the test's criterion for growth inhibition – in test [1] is 64 µM (≈ 189 µg/mL); in test [2], 0.5 µM (≈ 1.47 µg/mL); in the test with Escherichia coli BL21, 4 µM (≈ 11.8 µg/mL).

As to `CC[C@H](C)[C@H](NC(=O)[C@H](CCCCN)NC(=O)[C@H](CCCCN)NC(=O)[C@H](CCCCN)NC(=O)[C@H](CC(C)C)NC(=O)[C@H](Cc1ccccc1)NC(=O)[C@H](CCC(N)=O)NC(=O)[C@H](CCCN=C(N)N)NC(=O)[C@@H](NC(=O)[C@@H](NC(=O)[C@H](CCC(=O)O)NC(=O)[C@H](CCCCN)NC(=O)CNC(=O)[C@H](C)N)[C@@H](C)O)[C@@H](C)CC)C(=O)N[C@@H](CCC(N)=O)C(=O)N[C@@H](CCC(=O)O)C(=O)N[C@@H](Cc1c[nH]c2ccccc12)C(=O)N[C@@H](CCCCN)C(=O)N[C@@H](CCCCN)C(=O)N[C@@H](CCCN=C(N)N)C(=O)N[C@@H](C)C(=O)N[C@H](C(=O)N[C@H](C(=O)N[C@@H](C)C(=O)N[C@@H](Cc1c[nH]c2ccccc12)C(=O)O)[C@@H](C)CC)[C@@H](C)O` [AGKETIRQFLKKKIQEWKKRATIAW], the MIC in test [1] was found to be 16 µM (≈ 48.9 µg/mL); in test [2], 0.5 µM (≈ 1.53 µg/mL); with Escherichia coli BL21 it was 0.5 µM (≈ 1.53 µg/mL).

For `CC[C@H](C)[C@H](NC(=O)[C@H](Cc1ccccc1)NC(=O)[C@H](C)NC(=O)[C@H](CCCCN)NC(=O)[C@H](CCCCN)NC(=O)CNC(=O)[C@H](CCCN=C(N)N)NC(=O)[C@H](CCCCN)NC(=O)[C@H](CCCN=C(N)N)NC(=O)[C@H](CC(C)C)NC(=O)[C@H](CCC(=O)O)NC(=O)[C@H](CCC(=O)O)NC(=O)[C@H](CCCCN)NC(=O)[C@H](CC(C)C)NC(=O)[C@H](Cc1ccc(O)cc1)NC(=O)[C@H](CC(C)C)NC(=O)[C@@H](NC(=O)[C@H](CC(C)C)NC(=O)[C@H](C)NC(=O)[C@H](CCC(N)=O)NC(=O)[C@H](CCCN=C(N)N)NC(=O)CNC(=O)[C@H](C)N)[C@@H](C)O)C(=O)N[C@@H](Cc1c[nH]c2ccccc12)C(=O)N[C@@H](Cc1c[nH]c2ccccc12)C(=O)O` [AGRQALTLYLKEELRKRGKKAFIWW], the minimum inhibitory concentration (MIC) in test [1] is above 128 µM; in test [2], 4 µM (≈ 12.3 µg/mL); with Escherichia coli BL21, 16 µM (≈ 49 µg/mL).

`CC[C@H](C)[C@H](NC(=O)[C@H](Cc1ccc(O)cc1)NC(=O)[C@H](CCCCN)NC(=O)[C@H](CCCCN)NC(=O)[C@H](CC(C)C)NC(=O)[C@H](CCC(=O)O)NC(=O)[C@H](CCCCN)NC(=O)[C@H](Cc1c[nH]c2ccccc12)NC(=O)[C@@H](NC(=O)[C@H](CCCN=C(N)N)NC(=O)[C@H](CCC(=O)O)NC(=O)[C@H](CO)NC(=O)CNC(=O)[C@H](C)N)[C@@H](C)CC)C(=O)N[C@@H](CCCCN)C(=O)N[C@@H](CCCCN)C(=O)NCC(=O)N[C@@H](CCCCN)C(=O)N[C@@H](CCCCN)C(=O)N[C@H](C(=O)N[C@H](C(=O)N[C@@H](CCCN=C(N)N)C(=O)N[C@@H](C)C(=O)N[C@@H](C)C(=O)N[C@@H](Cc1c[nH]c2ccccc12)C(=O)O)[C@@H](C)CC)C(C)C` [AGSERIWKELKKYIKKGKKVIRAAW]: the figures for the MIC (in test [1]; in test [2]; in the test on Escherichia coli BL21) were 8 µM (≈ 23.9 µg/mL), 16 µM (≈ 47.8 µg/mL) and 2 µM (≈ 5.98 µg/mL), respectively.

`CC[C@H](C)[C@H](NC(=O)[C@H](CCCCN)NC(=O)CNC(=O)[C@H](Cc1ccccc1)NC(=O)[C@H](CCCCN)NC(=O)[C@H](CCCN=C(N)N)NC(=O)[C@H](CC(C)C)NC(=O)[C@H](Cc1ccc(O)cc1)NC(=O)[C@H](CCC(=O)O)NC(=O)[C@H](CC(C)C)NC(=O)[C@H](CC(C)C)NC(=O)[C@H](CCC(=O)O)NC(=O)[C@H](CCCCN)NC(=O)[C@@H](NC(=O)[C@H](CC(C)C)NC(=O)[C@H](CCCN=C(N)N)NC(=O)[C@H](CC(N)=O)NC(=O)[C@H](C)NC(=O)[C@H](CCCCN)NC(=O)[C@H](C)N)[C@@H](C)O)C(=O)N[C@@H](C)C(=O)N[C@@H](CCCN=C(N)N)C(=O)N[C@@H](CCCCN)C(=O)N[C@@H](C)C(=O)N[C@@H](Cc1c[nH]c2ccccc12)C(=O)O` [AKANRLTKELLEYLRKFGKIARKAW]: the MIC in test [1] turned out to be 16 µM (≈ 48.1 µg/mL); in test [2], 4 µM (≈ 12 µg/mL); with Escherichia coli BL21, 2 µM (≈ 6.01 µg/mL).

For `CC[C@H](C)[C@@H]1NC(=O)[C@H](CC(C)C)NC(=O)[C@@H](NC(=O)[C@@H](NC(=O)[C@@H](NC(=O)[C@H](CCCCN)NC(=O)[C@@H]2CCCN2C(=O)[C@@H](NC(=O)[C@@H](NC(=O)[C@H](CCCN=C(N)N)NC(=O)[C@H](C)NC(=O)[C@H](C)NC(=O)[C@@H](NC(=O)CNC(=O)[C@H](C)NC(=O)[C@H](CC(C)C)NC(=O)[C@H](CCSC)NC(=O)[C@@H]2CCCN2C(=O)[C@H](Cc2ccccc2)NC(=O)[C@@H](N)Cc2ccccc2)C(C)C)C(C)C)C(C)C)C(C)C)[C@@H](C)CC)CSSC[C@@H](C(=O)O)NC(=O)[C@H](CCCCN)NC(=O)[C@H](CCCCN)NC(=O)[C@H]([C@@H](C)O)NC1=O` [FFPMLAGVAARVVPKVICLITKKC], the MIC in test [3] was 6.25 µM (≈ 16.3 µg/mL); in test [4], 12.5 µM (≈ 32.5 µg/mL); in test [5], at least 50 µM.

Turning to `CC[C@H](C)[C@@H]1NC(=O)[C@H](CC(C)C)NC(=O)[C@@H](NC(=O)[C@@H](NC(=O)[C@H](CC(C)C)NC(=O)[C@H](CCCCN)NC(=O)[C@@H]2CCCN2C(=O)[C@@H](NC(=O)[C@H](CCSC)NC(=O)[C@H](CO)NC(=O)[C@H](C)NC(=O)[C@H](C)NC(=O)[C@H](CC(C)C)NC(=O)CNC(=O)[C@H](C)NC(=O)[C@H](CC(C)C)NC(=O)[C@H](CCSC)NC(=O)[C@@H]2CCCN2C(=O)[C@H](CC(C)C)NC(=O)[C@@H](N)Cc2ccccc2)C(C)C)C(C)C)CSSC[C@@H](C(=O)O)NC(=O)[C@H](CCCCN)NC(=O)[C@H](CCCCN)NC(=O)[C@H]([C@@H](C)O)NC1=O` [FLPMLAGLAASMVPKLVCLITKKC], the MIC in test [3] is 12.5 µM (≈ 31.8 µg/mL); in test [6], 12 µM (≈ 30.6 µg/mL); in test [4] it was 6 µM (≈ 15.3 µg/mL); in test [5] it was at least 50 µM.

For `CC[C@H](C)[C@H](NC(=O)[C@H](CO)NC(=O)[C@@H]1CCCN1C(=O)[C@@H](NC(=O)[C@H](CC(C)C)NC(=O)CNC(=O)[C@H](C)NC(=O)[C@H](CC(C)C)NC(=O)[C@@H](NC(=O)[C@@H]1CCCN1C(=O)[C@H](CC(C)C)NC(=O)[C@@H](N)Cc1ccccc1)C(C)C)[C@@H](C)O)C(=O)N[C@H](C(=O)N1CCC[C@H]1C(=O)N[C@@H](CCCCN)C(=O)N[C@@H](CC(C)C)C(=O)N[C@H](C(=O)N[C@H]1CSSC[C@@H](C(=O)O)NC(=O)[C@H](CCCCN)NC(=O)[C@H](CCCCN)NC(=O)[C@H]([C@@H](C)O)NC(=O)[C@H](CC(C)C)NC(=O)[C@H](CC(C)C)NC1=O)C(C)C)C(C)C` [FLPVLAGLTPSIVPKLVCLLTKKC], the MIC was 12.5 µM (≈ 31.9 µg/mL) in test [3], 25 µM (≈ 63.8 µg/mL) in test [6], 25 µM (≈ 63.8 µg/mL) in test [4] and at least 100 µM in test [5].

As for `CC[C@H](C)[C@H](NC(=O)CN)C(=O)N[C@@H](CC(C)C)C(=O)N[C@@H](CC(=O)O)C(=O)N[C@H](C(=O)N[C@H](C(=O)N[C@@H](CCCCN)C(=O)NCC(=O)N[C@H](C(=O)N[C@@H](C)C(=O)N[C@@H](CCCCN)C(=O)N[C@@H](CC(=O)O)C(=O)N[C@H](C(=O)N[C@@H](C)C(=O)N[C@@H](C)C(=O)N[C@@H](Cc1cnc[nH]1)C(=O)N[C@@H](CC(C)C)C(=O)N[C@@H](CC(C)C)C(=O)N[C@@H](CC(N)=O)C(=O)N[C@@H](CCSC)C(=O)N[C@H](C(=O)N[C@@H](CCCCN)C(=O)N[C@H]1CSSC[C@@H](C(=O)O)NC(=O)CNC(=O)[C@H]([C@@H](C)O)NC(=O)[C@H]([C@@H](C)CC)NC(=O)[C@H](CCCCN)NC1=O)C(C)C)C(C)C)C(C)C)C(C)C)[C@@H](C)O` [GILDTVKGVAKDVAAHLLNMVKCKITGC], the MIC was at least 50 µM in test [3], 80 µM (≈ 232 µg/mL) in test [4] and at least 160 µM in test [5].

Molecule `CC[C@H](C)[C@H](NC(=O)[C@H](CCCCN)NC(=O)CNC(=O)[C@H](CC(C)C)NC(=O)[C@H](Cc1ccccc1)NC(=O)[C@H](CCC(N)=O)NC(=O)[C@H](Cc1ccccc1)NC(=O)[C@@H](N)C(C)C)C(=O)N[C@H](C(=O)N[C@@H](Cc1cnc[nH]1)C(=O)N[C@@H](Cc1cnc[nH]1)C(=O)N[C@H](C(=O)NCC(=O)N[C@@H](CC(N)=O)C(=O)N[C@@H](Cc1ccccc1)C(=O)N[C@H](C(=O)N[C@@H](C)C(=O)NCC(=O)N[C@@H](Cc1ccccc1)C(=O)N[C@@H](CO)C(=O)N[C@@H](Cc1cnc[nH]1)C(=O)N[C@H](C(=O)N[C@@H](Cc1ccccc1)C(N)=O)C(C)C)C(C)C)C(C)C)[C@@H](C)CC` [VFQFLGKIIHHVGNFVAGFSHVF] came in with an MIC in the test on Escherichia coli MG1655 of at least 128 µM.
